Assay results taken from paper PMC5143673 (Innate immunity, 2016).
Non-standard residues stand in square brackets, D forms with d. No end group written: not given here. hCit = NC(=O)NCCCC[C@H](N)C(=O)O

Tests used:
[1] = system: neutrophils
[2] = target: N-HisTag containing ApoA1 (NH-ApoA1) (UniProt P02647); experiment: SPR
Sequence of UniProt P02647 (P02647 19-267): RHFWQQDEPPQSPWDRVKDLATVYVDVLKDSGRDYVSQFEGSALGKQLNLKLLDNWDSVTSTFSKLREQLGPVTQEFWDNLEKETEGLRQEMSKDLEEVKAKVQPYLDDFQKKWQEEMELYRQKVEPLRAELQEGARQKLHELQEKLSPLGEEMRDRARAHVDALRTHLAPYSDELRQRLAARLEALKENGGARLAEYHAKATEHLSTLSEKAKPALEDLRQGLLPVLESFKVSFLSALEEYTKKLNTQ

| Molecule | capacity to lyse neutrophils and erythrocytes [1] | fold lower affinity than native LL-37 [2] [fold] |
| --- | --- | --- |
| LLGDFFRKSKEKIGKEFKRIVQRIKDFLRNLVPRTES [LL-37] | ability of LL-37^C8 and LL-37^C12,15 to lyse neutrophils and erythrocytes was different | – |
| LLGDFFRKSKE[hCit]IG[hCit]EFKRIVQRIKDFLRNLVPRTES [LL-37^C12,15 (LL-37 carbamylated on Lys-12 and Lys-15)] | – | 3 |
